Where two headings read alike, the source gives them in different places.
Tests used:
[1] = biological target: human Nav1.8 (Homo sapiens, UniProt Q9Y5Y9); assay: SyncroPatch384PE assay (automated patch clamp); type: cell-based; conditions: human Nav1.8/b3 CHO cells
[2] = system: human plasma protein; assay: Human plasma protein binding by equilibrium dialysis; type: in vitro ADME; conditions: for Human Plasma, Unbound %: equilibrium dialysis; for Fold increase vs Comparatror (human plasma unbound): ratio of unbound % sulfoximine / comparator sulfonamide
Excerpt: (§1) Table 3 presents the human and rat plasma protein binding data (% unbound) for the compounds of Table 2.
(§2) Comparator compounds A, B, C have been previously reported as inhibitors of Na, 1.8 in WO2020/092667. Comparator D, not previously reported, is offered as an additional sulfonamido example.

[3] = system: rat plasma protein; assay: Rat plasma protein binding by equilibrium dialysis; type: in vitro ADME; conditions: for Rat Plasma, Unbound %: equilibrium dialysis; for Fold increase vs Comparator (rat plasma unbound): ratio of unbound % sulfoximine / comparator sulfonamide
Excerpt: as §1, §2

[4] = inactivated state block (P2 measurement), read-out: P2 IC50
[5] = resting state block (P1 measurement), read-out: P1 IC50

human Nav1.8, sequence (Q9Y5Y9 whole entry): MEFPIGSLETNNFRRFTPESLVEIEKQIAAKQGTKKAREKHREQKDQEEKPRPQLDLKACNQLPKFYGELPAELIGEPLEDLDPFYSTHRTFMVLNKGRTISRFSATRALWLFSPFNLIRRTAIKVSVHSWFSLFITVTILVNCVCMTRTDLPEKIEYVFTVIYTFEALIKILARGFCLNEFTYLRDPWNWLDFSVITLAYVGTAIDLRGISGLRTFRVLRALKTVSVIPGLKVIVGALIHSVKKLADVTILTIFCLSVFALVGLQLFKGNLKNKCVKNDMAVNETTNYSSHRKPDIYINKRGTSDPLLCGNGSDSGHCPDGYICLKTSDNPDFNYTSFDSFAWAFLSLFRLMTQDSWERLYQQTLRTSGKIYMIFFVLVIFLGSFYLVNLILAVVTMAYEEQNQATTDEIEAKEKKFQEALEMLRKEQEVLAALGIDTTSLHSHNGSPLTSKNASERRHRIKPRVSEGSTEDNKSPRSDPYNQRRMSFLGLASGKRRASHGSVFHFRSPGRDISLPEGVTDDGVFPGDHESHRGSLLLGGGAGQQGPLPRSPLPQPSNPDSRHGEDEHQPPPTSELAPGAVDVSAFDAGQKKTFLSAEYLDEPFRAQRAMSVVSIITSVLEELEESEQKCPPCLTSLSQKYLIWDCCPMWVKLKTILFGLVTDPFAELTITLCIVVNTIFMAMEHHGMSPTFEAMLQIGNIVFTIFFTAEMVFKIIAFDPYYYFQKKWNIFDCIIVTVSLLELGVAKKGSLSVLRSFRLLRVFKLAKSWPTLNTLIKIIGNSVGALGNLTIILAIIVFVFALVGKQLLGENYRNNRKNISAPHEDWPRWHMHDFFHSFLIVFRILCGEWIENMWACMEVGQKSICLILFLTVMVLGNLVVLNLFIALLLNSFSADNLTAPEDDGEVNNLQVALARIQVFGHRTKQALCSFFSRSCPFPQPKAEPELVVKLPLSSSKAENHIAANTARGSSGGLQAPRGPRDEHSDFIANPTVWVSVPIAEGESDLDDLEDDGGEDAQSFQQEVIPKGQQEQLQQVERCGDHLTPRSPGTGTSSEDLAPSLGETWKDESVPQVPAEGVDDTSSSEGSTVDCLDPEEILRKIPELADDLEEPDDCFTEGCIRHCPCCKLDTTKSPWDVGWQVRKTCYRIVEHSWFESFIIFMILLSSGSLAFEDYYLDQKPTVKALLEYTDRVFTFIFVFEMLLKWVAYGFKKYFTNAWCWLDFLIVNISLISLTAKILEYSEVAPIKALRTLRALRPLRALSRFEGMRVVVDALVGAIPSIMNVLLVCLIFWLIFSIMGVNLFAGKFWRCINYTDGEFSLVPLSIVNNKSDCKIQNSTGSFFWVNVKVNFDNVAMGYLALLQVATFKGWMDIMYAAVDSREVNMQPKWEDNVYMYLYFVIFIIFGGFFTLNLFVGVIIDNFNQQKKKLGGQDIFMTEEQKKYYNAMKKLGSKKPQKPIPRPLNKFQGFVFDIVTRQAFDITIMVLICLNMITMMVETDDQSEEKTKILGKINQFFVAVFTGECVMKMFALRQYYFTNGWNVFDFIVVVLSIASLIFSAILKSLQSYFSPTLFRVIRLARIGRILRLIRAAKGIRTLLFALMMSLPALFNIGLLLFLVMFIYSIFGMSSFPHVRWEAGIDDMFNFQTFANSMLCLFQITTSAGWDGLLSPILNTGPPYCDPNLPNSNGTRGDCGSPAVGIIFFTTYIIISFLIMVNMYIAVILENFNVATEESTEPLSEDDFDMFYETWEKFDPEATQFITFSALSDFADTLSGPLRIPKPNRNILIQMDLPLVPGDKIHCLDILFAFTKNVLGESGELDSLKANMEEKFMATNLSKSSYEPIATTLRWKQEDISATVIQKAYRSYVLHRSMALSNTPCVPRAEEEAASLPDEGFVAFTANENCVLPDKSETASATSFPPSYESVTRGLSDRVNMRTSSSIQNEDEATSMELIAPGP

| IC50 [1, 4] [nM] | IC50 [1, 5] [nM] | Human Plasma, Unbound % [2] [%] | Fold increase vs Comparatror (human plasma unbound) [2] [×] | Rat Plasma, Unbound % [3] [%] | Fold increase vs Comparator (rat plasma unbound) [3] [×] | SMILES |
| --- | --- | --- | --- | --- | --- | --- |
| ≤ 5 | ≤ 5 | 0.9 | 2.9 | 1.9 | 6.1 | Cc1nc(N2CCCC(F)(F)CC2)c(C(=O)Nc2cccc([S@](C)(=N)=O)c2)cc1C(F)(F)F [Example 4, (R)-2-(4,4-difluoroazepan-1-yl)-6-methyl-N-(3-(S-methylsulfonimidoyl)phenyl)-5-(trifluoromethyl)nicotinamide] |
| ≤ 5 | ≤ 5 | 1.8 | 7.5 | 3.55 | 6.8 | Cc1nc(N2CCCC(F)(F)CC2)c(C(=O)Nc2ccnc(S(C)(=N)=O)c2)cc1C(F)(F)F (stereo not shown) [Example 101, 2-(4,4-difluoroazepan-1-yl)-6-methyl-N-(2-(S-methylsulfonimidoyl)pyridin-4-yl)-5-(trifluoromethyl)nicotinamide] |
| – | ≤ 5 | 1.7 | 3.2 | 3.0 | 1.9 | Cc1nc(N2CCCC(F)(F)CC2)c(C(=O)Nc2cccc(S(C)(=N)=O)c2)cc1Cl (stereo in doubt) [Example 17, (S)-5-Chloro-2-(4,4-difluoroazepan-1-yl)-6-methyl-N-(3-(S-methylsulfonimidoyl)phenyl)nicotinamide] |
| – | – | 0.31 | – | 0.31 | – | Cc1nc(N2CCCC(F)(F)CC2)c(C(=O)Nc2cccc(S(N)(=O)=O)c2)cc1C(F)(F)F [Compound D, reference compound] |

— US20250154109A1, “SODIUM CHANNEL BLOCKING COMPOUNDS, DERIVATIVES THEREOF, AND METHODS OF THEIR USE” (LATIGO BIOTHERAPEUTICS, INC, priority 2022, published 2025)
